The test system of one assay is H929 cells. Briefly: Cell viability, H929 cells. The format is cell-based, human. Particulars: H929, 48 h. The procedure:
(§1) Figure 4 Indole-2-carboxylic acids induce the hallmarks of apoptosis in MCL-1-dependent cancer cell line H929. (a) Digitonin-permeabilized H929 cells were treated with 10 μM BH3 peptides for 4 h, and intact H929 cells were incubated with increasing concentrations (0.1–10 μM) of A-1208746 for 4 h before assessing the levels of cytochrome c released into the cytosol. (b) H929 and RS4;11 cells were incubated with increasing concentrations of MCL-1 inhibitors or the BCL-2-selective inhibitor ABT-199 (venetoclax) for 48 h before determining cell viability. Cell killing IC50s are plotted with each value representing the mean of three separate experiments. Error bars represent the S.E.M. (c) H929 cells were incubated with increasing concentrations of MCL-1 inhibitors in the presence or absence of the pan-caspase inhibitor QVD (100 μM) for 4 h before assessing caspase-3/-7 activation, mitochondrial membrane polarization, and the exposure of phosphatidylserine. […]
(§2) Adherent cell lines were seeded at 50 000 cells per well in 96-well plates and treated for 48 h with compounds diluted in half-log steps starting at 30 μM and ending at 0.001 μM. […] Effects on proliferation and viability were determined using CellTiter-Glo reagent from Promega (Madison, WI, USA) according to the manufacturer's instructions. IC50 values were determined by non-linear regression analysis of the concentration response data.

A further assay addresses MCL-1 (Homo sapiens, UniProt Q07820). Put plainly: MCL-1 protein levels by immunoblotting in HCC-1806 cells. The assay is classed as cell-based. Also on record: endogenous in cells; host or cells: HCC-1806. Particulars: immunoblot. As for the experimental part: Figure 1 MCL-1 levels are elevated in cancer cells after treatment with MCL-1-binding small molecules. (a) H929 multiple myeloma cells were treated for 4 h with 10 μM A-1210477 before immunopreciptating MCL-1. […] A control H929 lysate was run in lane 1, and an immunoprecipitation with a non-specific antibody (Ig) was run in lane 2. The positions of molecular weight markers (specified in kiloDaltons) are indicated on the left. (b) HCC-1806 breast cancer cells were incubated with increasing concentrations of A-1210477 (0.1, 0.5, 1, 5, 10, 15, or 20 μM) or bortezomib (2, 10, or 50 nM) for 8 h before assessing MCL-1 and NOXA levels by immunoblotting. β-Actin was probed as a protein loading control. The lower graph depicts reverse transcriptase-PCR quantification of MCL1 mRNA from HCC-1806 cells treated for 8 h with similar concentrations of A-1210477. (c) HCC-1806 cells were incubated with increasing concentrations (0.1, 0.5, 1, 5, 10, and 20 μM) of A-954248, A-962653, or A-1248767 for 24 h before assessing MCL-1 and BCL-XL levels by immunoblotting. β-Actin was probed as a protein loading control
Cells were scraped into cold PBS, pelleted, and then resuspended in 100–200 μl ice-cold insect cell lysis buffer supplemented with protease inhibitors (BD Biosciences Pharmingen, San Diego, CA, USA). Cells were lysed by sonication, and the debris was cleared in a microcentrifuge. […]
Background: A western blot detects proteins with antibodies after separation by electrophoresis.

For the next assay, the system named is EJ-1 cells. Put plainly: Navitoclax / A-1210477 combination cell viability, EJ-1 cells. The assay is classed as cell-based. Particulars: EJ-1, 48 h. The procedure:
Figure 6 A-1210477 synergizes with navitoclax to kill hematological and solid tumor cell lines. BxPC-3, EJ-1, H23, and OPM-2 cells were treated with increasing concentrations of navitoclax in the presence or absence of increasing concentrations of A-1210477 for 48 h before assessing cell viability. All data points represent the means of triplicate experiments, with error bars indicating the S.E.M. TEXT PRINTED IN THE PICTURE: A-1210477 + navitoclax: Bliss sum (BxPC-3): 716; Bliss sum (EJ-1): 464; Bliss sum (H23): 76; Bliss sum (OPM-2): 946 DOUBTS OF THE COPYIST ABOUT THIS PICTURE: The Bliss sums apply to the combination of A-1210477 and navitoclax. The picture prints the two names separately (legend heading and axis title), not as one joined label.
Adherent cell lines were seeded at 50 000 cells per well in 96-well plates and treated for 48 h with compounds diluted in half-log steps starting at 30 μM and ending at 0.001 μM. Multiple myeloma cell lines were seeded at 15 000–20 000 cells per well and treated similarly. Effects on proliferation and viability were determined using CellTiter-Glo reagent from Promega (Madison, WI, USA) according to the manufacturer's instructions. IC50 values were determined by non-linear regression analysis of the concentration response data.

For the next assay, the target named is T1, MCL-1–NOXA interactions (Homo sapiens, UniProt Q07820).
T1 construct: expressed in transfected cells; host or cells: HeLa cells stably expressing a GAL4-luciferase reporter
Put plainly: Mammalian two-hybrid assay, MCL-1–NOXA, HeLa cells. The format is cell-based. Conditions: 24 h, luciferase two-hybrid. As for the experimental part: (a) H929 cells were treated with increasing concentrations of A-1210477 for 4 h. […] All data represent the mean of triplicate experiments, with error bars indicating the S.D. (b) Quantitative measurement of protein–protein interactions using a luciferase-based mammalian two-hybrid assay. […] All data represent the means of triplicate experiments, with error bars indicating the S.Ds.
HeLa cells stably expressing a GAL4-luciferase reporter were seeded into 10 cm dishes at 5 × 10^5 cells per plate. In all, 24 μg of a plasmid expressing both the ‘bait' and ‘prey' fusion proteins (GAL4DBD-BIM and VP16AD-BCL-2, GAL4DBD-BCL-XL and VP16AD- BCL-XS, or GAL4DBD-MCL-1 and VP16AD-NOXA, respectively) were mixed with 1.5 ml OptiMEM (Invitrogen). Separately, 24 μl Lipofectamine 2000 (Invitrogen) were mixed with 1.5 ml OptiMEM. Both solutions were incubated for 5 min (RT) and then mixed together for 20 min. Three milliliters of the mixture was added to cells in 12 ml culture medium lacking antibiotics, incubated at 37 °C for 24 h, and then transferred to 96-well plates at 20 000 cells per well. Compounds were added in half-log dilutions, starting from 1 μM and ending at 0.0001 μM for 24 h, and luciferase activity was assessed using ONE-Glo reagent (Promega). All data were plotted as the percentage of complex remaining relative to untreated controls.

Another assay concerns RS4;11 cell line. Put plainly: Cell viability, RS4;11 cells. The format is cell-based. Particulars: RS4;11, 48 h. As for the experimental part: as §1, §2

MCL-1, sequence (Q07820 whole entry): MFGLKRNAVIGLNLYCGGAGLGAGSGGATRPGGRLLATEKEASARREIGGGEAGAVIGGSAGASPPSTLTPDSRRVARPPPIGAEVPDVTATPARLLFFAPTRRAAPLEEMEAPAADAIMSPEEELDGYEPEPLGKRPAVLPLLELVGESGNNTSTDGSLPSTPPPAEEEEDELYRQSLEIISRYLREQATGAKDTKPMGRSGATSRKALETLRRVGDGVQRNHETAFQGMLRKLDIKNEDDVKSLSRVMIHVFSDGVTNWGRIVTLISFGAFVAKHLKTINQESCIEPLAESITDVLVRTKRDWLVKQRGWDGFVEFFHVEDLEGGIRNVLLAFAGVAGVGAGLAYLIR
T1 sequence (Q07820 whole entry, the tested form may be a part): as the sequence (Q07820 whole entry) above

As usually defined, the IC50 is the concentration needed to halve the response being measured. The low end stands for inhibition by little substance, the high end for a need for much substance. `Cc1nn(C)c(COc2ccc(N3CCN(S(=O)(=O)N(C)C)CC3)cc2)c1-c1cccc2c(CCCOc3cccc4ccccc34)c(C(=O)O)n(CCN3CCOCC3)c12` [A-1210477]: the “cell killing IC50” value in the assay with H929 cells is “low-μM range”. Further, on MCL-1 (0.1-20 μM), the “effect on MCL-1 protein levels” value is reported as “triggered MCL-1 elevation”. The “lowest concentration at which increases in MCL-1 protein could be observed” value on MCL-1 (8 h or 24 h) came to 0.5 µM. For the same molecule, the potentiation of navitoclax result in the assay on EJ-1 cells was “substantially shifted the dose–response curve of navitoclax”. The molecule further displayed an IC50 on MCL-1–NOXA interactions of roughly 1000 nM. Moreover, the “effect on cell viability” value with RS4;11 cell line was “no effect”.

The values are drawn from article PMC4669759 (Cell Death & Disease, 2015).
